Experiment: molar heat capacity at constant pressure
Settings: 101.33 kPa

CCCCCCCC/C=C/CCCCCCCC(=O)OCC(COC(=O)CCCCCCC/C=C/CCCCCCCC)OC(=O)CCCCCCC/C=C/CCCCCCCC [trielaidin]
Small (less than 1 g) adiabatic calorimetry
Settings	molar heat capacity at constant pressure [J/K/mol]
8.85 K, Metastable crystal	2.656
9.73 K, Metastable crystal	8.854
10.55 K, Metastable crystal	11.51
11.43 K, Metastable crystal	19.48
12.54 K, Metastable crystal	24.79
13.08 K, Metastable crystal	28.33
14.42 K, Metastable crystal	36.3
14.92 K, Metastable crystal	40.73
16.44 K, Metastable crystal	50.47
16.93 K, Metastable crystal	56.67
18.55 K, Metastable crystal	70.83
18.95 K, Metastable crystal	75.26
20 K, Crystal	79.69
20 K, Metastable crystal	88.54
20.71 K, Metastable crystal	89.43
21.09 K, Metastable crystal	93.86
22.99 K, Metastable crystal	110.68
23.34 K, Metastable crystal	113.34
25 K, Crystal	115.11
25 K, Metastable crystal	123.96
25.34 K, Metastable crystal	130.16
25.67 K, Metastable crystal	134.59
27.78 K, Metastable crystal	148.75
28.07 K, Metastable crystal	150.52
30 K, Crystal	168.23
30 K, Metastable crystal	168.23
30.29 K, Metastable crystal	168.23
30.55 K, Metastable crystal	171.77
31.33 K, Metastable crystal	184.17
31.83 K, Metastable crystal	196.57
33.13 K, Metastable crystal	197.45
33.17 K, Metastable crystal	195.68
35 K, Crystal	203.65
35 K, Metastable crystal	212.5
35.4 K, Metastable crystal	219.59
37.51 K, Metastable crystal	236.41
39.64 K, Metastable crystal	254.12
40 K, Crystal	247.92
40 K, Metastable crystal	256.78
41.87 K, Metastable crystal	272.71
44.15 K, Metastable crystal	292.19
45 K, Crystal	292.19
45 K, Metastable crystal	301.05
46.49 K, Metastable crystal	312.56
48.88 K, Metastable crystal	332.92
50 K, Crystal	327.61
50 K, Metastable crystal	345.32
51.31 K, Metastable crystal	350.63
53.78 K, Metastable crystal	370.11
55 K, Crystal	371.88
55 K, Metastable crystal	380.74
56.3 K, Metastable crystal	393.13
58.84 K, Metastable crystal	412.61
60 K, Crystal	407.3
60 K, Metastable crystal	416.15
61.42 K, Metastable crystal	425.89
65 K, Crystal	442.72
65 K, Metastable crystal	451.57
66.67 K, Metastable crystal	466.62
69.33 K, Metastable crystal	480.79
70 K, Crystal	469.28
70 K, Metastable crystal	486.99
72.01 K, Metastable crystal	500.27
74.71 K, Metastable crystal	516.21
75 K, Crystal	504.7
75 K, Metastable crystal	522.4
77.43 K, Metastable crystal	531.26
80 K, Crystal	531.26
80 K, Metastable crystal	548.97
80.16 K, Metastable crystal	548.08
82.91 K, Metastable crystal	563.13
85 K, Crystal	557.82
85 K, Metastable crystal	575.53
85.67 K, Metastable crystal	580.84
88.45 K, Metastable crystal	595.01
90 K, Crystal	584.39
90 K, Metastable crystal	602.09
91.24 K, Metastable crystal	610.06
94.03 K, Metastable crystal	625.12
95 K, Crystal	610.95
95 K, Metastable crystal	628.66
96.84 K, Metastable crystal	639.28
99.66 K, Metastable crystal	654.33
100 K, Crystal	637.51
100 K, Metastable crystal	655.22
100.5 K, Metastable crystal	656.99
103.85 K, Metastable crystal	678.24
105 K, Crystal	655.22
105 K, Metastable crystal	681.78
106.65 K, Metastable crystal	689.75
109.51 K, Metastable crystal	701.26
110 K, Crystal	672.93
110 K, Metastable crystal	708.35
112.39 K, Metastable crystal	714.54
115.27 K, Metastable crystal	726.94
118.14 K, Metastable crystal	740.22
120 K, Crystal	717.2
120 K, Metastable crystal	752.62
121.03 K, Metastable crystal	753.5
123.91 K, Metastable crystal	765.9
126.79 K, Metastable crystal	778.29
129.68 K, Metastable crystal	792.46
130 K, Crystal	761.47
130 K, Metastable crystal	796.89
132.57 K, Metastable crystal	805.74
135.47 K, Metastable crystal	812.83
138.36 K, Metastable crystal	826.99
140 K, Crystal	788.03
140 K, Metastable crystal	832.31
141.26 K, Metastable crystal	842.93
144.16 K, Metastable crystal	850.01
147.07 K, Metastable crystal	864.18
149.97 K, Metastable crystal	875.69
150 K, Crystal	823.45
150 K, Metastable crystal	876.58
152.88 K, Metastable crystal	887.2
155.78 K, Metastable crystal	906.68
158.69 K, Metastable crystal	917.31
160 K, Crystal	867.72
160 K, Metastable crystal	920.85
161.6 K, Metastable crystal	932.36
164.51 K, Metastable crystal	946.53
167.42 K, Metastable crystal	962.46
170 K, Crystal	912
170 K, Metastable crystal	973.98
170.34 K, Metastable crystal	977.52
176.16 K, Metastable crystal	1009.4
179.08 K, Metastable crystal	1022.7
180 K, Crystal	947.41
180 K, Metastable crystal	1027.1
181.99 K, Metastable crystal	1043
184.9 K, Metastable crystal	1066.1
187.79 K, Metastable crystal	1080.2
190 K, Crystal	991.68
190 K, Metastable crystal	1097.9
190.66 K, Metastable crystal	1104.1
193.5 K, Metastable crystal	1125.4
196.32 K, Metastable crystal	1147.5
199.11 K, Metastable crystal	1169.7
200 K, Crystal	1036
200 K, Metastable crystal	1177.6
201.89 K, Metastable crystal	1191.8
204.65 K, Metastable crystal	1213.9
207.38 K, Metastable crystal	1237.8
210 K, Crystal	1071.4
210 K, Metastable crystal	1257.3
210.1 K, Metastable crystal	1260
212.79 K, Metastable crystal	1280.3
215.47 K, Metastable crystal	1303.4
218.13 K, Metastable crystal	1322.8
220 K, Crystal	1115.6
220 K, Metastable crystal	1337
220.78 K, Metastable crystal	1343.2
223.41 K, Metastable crystal	1362.7
226.02 K, Metastable crystal	1384.8
228.62 K, Metastable crystal	1405.2
230 K, Crystal	1159.9
230 K, Metastable crystal	1416.7
231.2 K, Metastable crystal	1423.8
233.77 K, Metastable crystal	1443.3
236.32 K, Metastable crystal	1463.6
238.87 K, Metastable crystal	1484
240 K, Crystal	1213
240 K, Metastable crystal	1496.4
241.4 K, Metastable crystal	1503.5
243.91 K, Metastable crystal	1523.8
246.41 K, Metastable crystal	1545.1
248.9 K, Metastable crystal	1565.4
250 K, Crystal	1266.2
250 K, Metastable crystal	1576.1
251.38 K, Metastable crystal	1586.7
253.84 K, Metastable crystal	1607.9
256.3 K, Metastable crystal	1629.2
258.74 K, Metastable crystal	1653.1
260 K, Crystal	1319.3
260 K, Metastable crystal	1664.6
261.18 K, Metastable crystal	1675.2
263.6 K, Metastable crystal	1697.4
266.01 K, Metastable crystal	1717.7
268.41 K, Metastable crystal	1732.8
270 K, Crystal	1390.1
270 K, Metastable crystal	1744.3
270.81 K, Metastable crystal	1742.5
273.2 K, Metastable crystal	1738.1
280 K, Crystal	1469.8
280 K, Metastable crystal	1815.1
288 K, Crystal	1549.5
288 K, Metastable crystal	1886
290 K, Crystal	1558.4
298.15 K, Crystal	1646.9
300 K, Crystal	1673.5
310 K, Crystal	1762
314.83 K, Crystal	1806.3
314.83 K, Liquid	1877.1
317.71 K, Liquid	1884.2
318.99 K, Liquid	1886.9
320 K, Liquid	1894.8
320.03 K, Liquid	1891.3
321 K, Liquid	1895.7
322.34 K, Liquid	1893.9
323.01 K, Liquid	1896.6
324.66 K, Liquid	1901.9
325.03 K, Liquid	1902.8
326.98 K, Liquid	1907.2
327.05 K, Liquid	1906.3
329.07 K, Liquid	1911.6
329.29 K, Liquid	1913.4
330 K, Liquid	1912.5
331.09 K, Liquid	1916.1
331.61 K, Liquid	1918.7
333.11 K, Liquid	1918.7
333.92 K, Liquid	1922.3
335.13 K, Liquid	1922.3
336.24 K, Liquid	1926.7
337.15 K, Liquid	1926.7
338.55 K, Liquid	1932.9
339.17 K, Liquid	1933.8
340.87 K, Liquid	1940.9
343.19 K, Liquid	1946.2
345.51 K, Liquid	1950.6
347.83 K, Liquid	1954.1
350.15 K, Liquid	1963

Crystal
Settings	molar heat capacity at constant pressure [J/K/mol]
10.52 K	3.542
11.9 K	8.854
12.76 K	23.91
14.41 K	29.22
16.16 K	44.27
17.98 K	59.32
19.96 K	75.26
22.02 K	93.86
24.22 K	111.56
26.5 K	130.16
28.88 K	149.64
35.94 K	215.16
38.34 K	255
40.46 K	267.4
42.73 K	264.74
45.11 K	290.42
47.47 K	311.67
49.86 K	329.38
52.29 K	347.97
54.77 K	367.45
57.28 K	389.59
59.83 K	409.07
62.4 K	409.96
65.01 K	435.63
67.64 K	457.77
70.3 K	473.71
72.97 K	489.64
75.67 K	503.81
78.39 K	521.52
81.12 K	535.69
83.86 K	550.74
86.62 K	565.79
89.39 K	580.84
92.18 K	595.01
95.56 K	609.18
99.01 K	629.54
104.65 K	654.33
107.48 K	666.73
110.32 K	677.36
113.16 K	689.75
116 K	701.26
118.85 K	713.66
121.7 K	725.17
124.56 K	734.02
127.41 K	742.88
130.27 K	758.82
133.13 K	766.78
135.99 K	775.64
138.85 K	786.26
141.71 K	796
144.57 K	804.86
147.42 K	815.48
150.23 K	826.99
153.02 K	837.62
155.77 K	850.01
158.51 K	861.53
161.21 K	871.27
163.89 K	883.66
166.55 K	893.4
169.18 K	904.91
171.79 K	914.65
174.38 K	927.05
176.95 K	936.79
179.5 K	947.41
182.03 K	958.04
184.54 K	970.43
187.03 K	978.4
189.51 K	989.03
191.97 K	998.77
194.42 K	1008.5
196.84 K	1020
199.25 K	1028.9
201.65 K	1037.7
206.39 K	1058.1
208.74 K	1067.8
211.08 K	1077.6
213.41 K	1087.3
215.72 K	1097.9
218.01 K	1108.6
220.3 K	1117.4
222.57 K	1127.2
224.83 K	1137.8
227.07 K	1149.3
229.31 K	1160.8
231.53 K	1169.7
233.74 K	1180.3
235.94 K	1190.9
238.13 K	1201.5
240.31 K	1212.2
242.48 K	1222.8
244.64 K	1235.2
246.79 K	1245.8
248.93 K	1256.4
251.06 K	1268.8
253.19 K	1279.4
255.3 K	1292.7
257.41 K	1305.1
259.5 K	1320.2
261.59 K	1332.6
263.67 K	1345.9
265.75 K	1360.9
267.81 K	1374.2
269.86 K	1389.2
271.91 K	1403.4
273.95 K	1419.3
275.98 K	1437.9
278 K	1454.8
280.02 K	1471.6
282.03 K	1489.3
284.04 K	1509.7
288.03 K	1543.3
290.02 K	1560.1
292 K	1580.5
293.98 K	1601.7
295.95 K	1622.1
297.92 K	1646.9
299.88 K	1669.9
301.84 K	1708.9
303.79 K	1742.5
305.74 K	1795.7
307.67 K	1890.4
309.58 K	2118.8
